Values of other authors, collected in patent publication US20260248820A1, “USES OF HYDROGENATED CANNABIDIOL (H4CBD) AND ADVANCED METABOLIC SYNDROME” (The Regents of the University of California, priority 2022, published 2026).

Tests used:
[1] = test system: rodents; conditions: cited from earlier work
[2] = test system: endocannabinoid receptors; conditions: cited from earlier work
[3] = test system: diet-induced obese (DIO) and non-obese diabetic mice; conditions: cited from earlier work
[4] = clinical; cited from earlier work
[5] = rats without underlying metabolic dysfunction; cited from earlier work
[6] = test system: PTZ-induced seizure; conditions: rats; cited from earlier work

Row | Compound | Documented toxicity [1] [mg/kg] | Affinity for the endocannabinoid receptors responsible for cannabis intoxication [2] | Incidence of diabetes [3] | Effects of high doses administered clinically [4] | Body mass gain [5] | Reduction of PTZ-induced seizure frequency and severity [6]
1 | C=C(C)[C@@H]1CCC(C)=C[C@H]1c1c(O)cc(CCCCC)cc1O [CBD, Cannabidiol] | > 600 | little affinity | reduced the incidence of diabetes | anorexic and diarrheal effects | inhibit body mass gain | –
2 | CCCCCc1cc(O)c([C@@H]2C=C(C)CC[C@H]2C(C)C)c(O)c1 [H2CBD, dihydrocannabidiol] | – | – | – | – | – | equal effectiveness to that of CBD
